Test results: patent US9315519B2, “Guanidine substituted tetrahydroisoquinoline compounds as factor XIa inhibitors” (BRISTOL-MYERS SQUIBB COMPANY, priority 2012, dated 2016)
Counter-ions that a name gives are not always drawn.

Target: purified human Factor XIa (Homo sapiens (Human), UniProt P03951)
Assay: Factor XIa enzyme inhibition assay (chromogenic substrate S-2366)
Format: biochemical
Conditions: substrate S-2366, pH 7.4
Protocol: The effectiveness of compounds of the present invention as inhibitors of the coagulation factors XIa, VIIa, IXa, Xa, XIIa, plasma kallikrein or thrombin, can be determined using a relevant purified serine protease, respectively, and an appropriate synthetic substrate. The rate of hydrolysis of the chromogenic or fluorogenic substrate by the relevant serine protease was measured both in the absence and presence of compounds of the present invention. […] A decrease in the rate of absorbance or fluorescence change in the presence of inhibitor is indicative of enzyme inhibition. Such methods are known to one skilled in the art. The results of this assay are expressed as the inhibitory constant, Ki.
Factor XIa determinations were made in 50 mM HEPES buffer at pH 7.4 containing 145 mM NaCl, 5 mM KCl, and 0.1% PEG 8000 (polyethylene glycol; JT Baker or Fisher Scientific). Determinations were made using purified human Factor XIa at a final concentration of 75-200 pM (Haematologic Technologies) and the synthetic substrate S-2366 (pyroGlu-Pro-Arg-pNA; CHROMOGENIX® or AnaSpec) at a concentration of 0.0002-0.001 M.
The Michaelis constant, Km, for substrate hydrolysis by each protease, was determined at 25° C. using the method of Lineweaver and Burk. Values of Ki were determined by allowing the protease to react with the substrate in the presence of the inhibitor. Reactions were allowed to go for periods of 20-180 minutes (depending on the protease) and the velocities (rate of absorbance or fluorescence change versus time) were measured. The following relationships were used to calculate Ki values: (vo−vs)/vs=I/(Ki(1+S/Km)) for a competitive inhibitor with one binding site; or vs/vo=A+((B−A)/1+((IC50/(I)n))); and Ki=IC50/(1+S/Km) for a competitive inhibitor where: […]

purified human Factor XIa, sequence (P03951 388-625): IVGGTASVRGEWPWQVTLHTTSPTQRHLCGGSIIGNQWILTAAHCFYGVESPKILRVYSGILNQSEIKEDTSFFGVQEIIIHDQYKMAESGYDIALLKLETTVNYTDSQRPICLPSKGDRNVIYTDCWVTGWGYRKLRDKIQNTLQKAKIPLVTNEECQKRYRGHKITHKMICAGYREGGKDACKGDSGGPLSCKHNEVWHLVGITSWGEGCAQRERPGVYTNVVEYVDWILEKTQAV
purified human Factor XIa, sequence (P03951 19-387 partner): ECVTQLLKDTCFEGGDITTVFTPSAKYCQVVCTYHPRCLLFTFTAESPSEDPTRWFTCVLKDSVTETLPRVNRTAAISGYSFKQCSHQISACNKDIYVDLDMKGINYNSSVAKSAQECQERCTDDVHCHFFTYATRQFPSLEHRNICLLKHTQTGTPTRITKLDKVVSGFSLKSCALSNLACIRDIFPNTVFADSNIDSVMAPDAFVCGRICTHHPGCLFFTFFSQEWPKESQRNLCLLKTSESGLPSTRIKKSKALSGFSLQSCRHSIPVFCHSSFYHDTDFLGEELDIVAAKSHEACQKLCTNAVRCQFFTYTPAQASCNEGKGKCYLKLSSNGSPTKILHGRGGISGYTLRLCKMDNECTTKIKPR

Compared with `CN1CCN(c2cccc3c2CCN(C(=O)CC2CCN(C(=N)N)CC2)[C@H]3C(=O)Nc2ccc(C(=O)O)cc2)C(=O)C1` [Example 19, (R)-4-(2-(2-(1-carbamimidoylpiperidin-4-yl)acetyl)-5-(4-methyl-2-oxopiperazin-1-yl)-1,2,3,4-tetrahydroisoquinoline-1-carboxamido)benzoic acid, bis-HCl Salt], `CN1CCN(c2cccc3c2CCN(C(=O)C2CC4(CCN(C(=N)N)CC4)C2)[C@@H]3C(=O)Nc2ccc(C(=O)O)cc2)C(=O)C1` [Example 18, (S)-4-(2-(7-carbamimidoyl-7-azaspiro[3.5]nonane-2-carbonyl)-5-(4-methyl-2-oxopiperazin-1-yl)-1,2,3,4-tetrahydroisoquinoline-1-carboxamido)benzoic acid, bis HCl Salt] is lower in Ki: 382 nM for the first, under 5 nM for the second.

Compared with `COC1CCN(c2cccc3c2CCN(C(=O)C2CC4(CCNCC4)C2)C3C(=O)Nc2ccc(C(=O)O)cc2)CC1` (stereo not drawn) [Example 12, 4-(5-(4-methoxypiperidin-1-yl)-2-(7-azaspiro[3.5]nonane-2-carbonyl)-1,2,3,4-tetrahydroisoquinoline-1-carboxamido)benzoic acid, bis TFA Salt], `COC1CCN(c2cccc3c2CCN(C(=O)C2CCN(C(=N)N)CC2)C3C(=O)Nc2ccc(C(=O)O)cc2)CC1` (stereo not drawn) [Example 24, 4-(2-(1-carbamimidoylpiperidine-4-carbonyl)-5-(4-methoxypiperidin-1-yl)-1,2,3,4-tetrahydroisoquinoline-1-carboxamido)benzoic acid, bis-TFA salt] is 33-fold lower in Ki: 190 nM for the first, 5.68 nM for the second.

Going from `N=C(N)N1CCc2nc(C(=O)N3CCc4c(Br)cccc4C3C(=O)Nc3ccc(C(=O)O)cc3)sc2C1` (stereo not drawn) [Example 1, 4-(5-bromo-2-(5-carbamimidoyl-4,5,6,7-tetrahydrothiazolo[5,4-c]pyridine-2-carbonyl)-1,2,3,4-tetrahydroisoquinoline-1-carboxamido)benzoic acid, TFA Salt] to `COC1CCN(c2cccc3c2CCN(C(=O)c2nc4c(s2)CN(C(=N)N)CC4)C3C(=O)Nc2ccc(C(=O)O)cc2)CC1` (stereo not drawn) [Example 5, 4-(2-(5-carbamimidoyl-4,5,6,7-tetrahydrothiazolo[5,4-c]pyridine-2-carbonyl)-5-(4-methoxypiperidin-1-yl)-1,2,3,4-tetrahydroisoquinoline-1-carboxamido)benzoic acid, TFA salt], the Ki falls from 90.6 nM to under 5 nM. The second binds more tightly here.
